In BindingDB's records for PubMed 33764065 (Niddk, 2021):
pIC50, pKi: −log10 of the molar value.

What was measured:
[1] = Inhibition of human non pancreatic secretory phospholipase A2 incubated for 30 mins by plate reader analysis
[2] = Binding affinity to bovine brain membrane BzR assessed as inhibition constant

| Structure (SMILES) | pIC50 [1] | pKi [2] |
| --- | --- | --- |
| COc1ccc2c(c1)c(CC(=O)O)c(C)n2Cc1ccccc1 [1-BENZYL-5-METHOXY-2-METHYL-1H-INDOL-3-YL)-ACETIC ACID] | 4.87 | – |
| O=C(NCc1ccccc1)C(=O)c1c[nH]c2ccc([N+](=O)[O-])cc12 [N-benzyl-2-(5-nitro-1H-indol-3-yl)-2-oxoacetamide] | – | 6.93 |
